From US20070037833A1, “Compositions and methods for inhibiting neurodegeneration” (priority 2005, published 2007) come the findings set out here.

“Also recorded” adds a separate entry of the source.

The subject of experiment [1] is motor neurons expressing G59S p150^glued. Put plainly: Motor neuron death from HSV-expressed mutant p150glued in spinal cord cultures. Format: cell-based, rat. Conditions: 6 days post-infection; treatment daily or every other day. An excerpt: Various cDNAs were cloned into the PrpUC amplicon plasmid and were used to generate recombinant HSV as previously described (Neve et al., 1997). The titer of viruses used in these studies were routinely 3-5×10^7 plaque-forming units/ml. The cDNA for wild type/mutant SOD and wild type/mutant p150^glued were gifts of D. Borchelt and E. Holzbaur, respectively. The K295R mutant version of chick src was a gift of J. Brugge.
Mutations in superoxide dismutase (SOD) or the p150^glued subunit of dynactin are known to account for a familial form of ALS in a subpopulation of individuals (Rosen, 1993; Puls et al., 2003; Bruijn et al., 2004). We inquired whether expression the mutant forms of SOD or p150^glued caused motor neuron death in vitro and if Trk antagonism was neuroprotective. Recombinant herpes simplex viruses (HSVs) were generated that expressed wild type or mutant form of SOD (G85R) and wild type or mutant p150^glued (G59S). […] Spinal cord cultures were infected with virus at 14 DIV and the number of motor neurons was determined 2, 4, 6 or 8 days later (FIG. 4, panel a.).
We next determined if KW6002 could protect motor neurons from the toxic effects of mutant proteins. Spinal cord cultures were infected with viruses expressing wild type or mutant versions of SOD or p150^glued at 14 DIV, then treated with drug or vehicle for 4 days (FIG. 4, panel b.). […]

Experiment [2] deals with src-family kinases (SFK). Put plainly: Immunoblot for active SFKs (clone 28 antibody) in spinal cord cultures. The class given is cell-based, rat. The note with it: 24 hours treatment. The method, then: Cells were lysed in 1% NP-40 lysis buffers containing protease inhibitors, subjected to SDS-PAGE and immunoblotted as previously described (Fryer et al., 1999; Fryer et al., 2000). For immunoprecipitation, lysates from 60 mm dishes were pre-cleared by incubation with protein A beads (Santa Cruz), incubated with primary antibody (4 μg/ml)×2 hours then 50 μL of beads added and incubated overnight with gentle agitation at 4° C. Beads were pelleted, washed 5× with 10 mM Tris pH 7.4+0.5 mM EGTA+0.5 mM EDTA+0.1% NP40 before elution in 1× Laemelli sample buffer. Antibody sources: BD Transduction Labs—TrkB and MAP Kinase used at 1:500, Cell Signaling—Akt 1:1000; phosphoTrk (tyr490) 1:1000; phospho p42/44 MAP Kinase (thr 202/tyr204) 1:1000; phosphoAkt (ser473) 1:500; IGFI antibody (tyr 1131) 1:500. Upstate—adenosine A2a 1:1000. Sigma—actin 1:200. Biosource—active src (clone 28) 1:200.
The precise mechanism by which G-protein coupled receptors trans-activate receptor tyrosine kinases is complex and to some extent receptor-subtype specific (Luttrell et al., 1999; Downward, 2003; Piiper and Zeuzem, 2004; Waters et al., 2004). […] If this pathway was operative in spinal cord neurons, then antagonism of adenosine A2a receptors might lead to reduced src activation and antagonism of SFKs might be neuro-protective. Src is negatively regulated by phosphorylation of tyrosine 529 (refers to human src sequence) and an antibody that recognizes a de-phospho epitope in this region (“clone 28”) is a reliable measure of active src and SFKs (Kawakatsu et al., 1996). We began by asking for adenosine A2a receptors and active SFKs are present in the same cells and if so, their subcellular distribution. Pure motor neurons, grown in the presence of BDNF were immunostained with a rabbit anti-adenosine A2a receptor and the clone 28 antibody. One hundred percent of motor neurons expressed both antigens and on dendrites, the immunoreactivity formed discrete fine puncta (FIG. 5a). Many, but not all, puncta were stained with both antibodies. […]

Take `CCCn1c(=O)[nH]c(=O)c2[nH]cnc21` [enprofylline, 3-propylxanthine]: the “motor neuron survival / toxicity of G59S p150glued” value in experiment [1] is recorded as “significantly greater number of motor neurons; also recorded: completely prevented the toxicity of mutant protein expression”. Moreover, the “abundance of active SFKs” value is on record as “reduced” in experiment [2] and “caused a reduction in the abundance of active SFKs” in experiment [2] (listed as Enprofylline).
